Values after ≈ are worked out from the molar mass of the structure shown. Values joined by “and” are separate entries in the source; they are usually repeats but may differ in a detail not shown here. Identical values can stand only once.
Tests used:
TPA-induced ear oedema = assay: Anti-inflammatory activity after a single topical administration in TPA-induced ear oedema; type: in vivo, mouse; settings: for Inhibition vs TPA (%) / Ear oedema Mean / anti-inflammatory effect (conclusion in words): single topical application; for Inhibition vs TPA (%): T6h; for Ear oedema Mean: mouse ear thickness at T6h; for ranking compared to BPO at 5%: compound at 5%
Protocol: the aim is to evaluate the anti-inflammatory activity of the peroxides by measuring the thickness of mouse ear after TPA topical application. The anti-inflammatory activity is defined as a inhibition percentage of the TAP-induced ear oedema.
An oedema was induced by a single topical application of 20 μl of TPA dissolved in acetone at 0.01%.
Then a single topical application of tested compounds dissolved in TPA solution.
Ear thickness was measured at T6h.
Results are expressed in percentages based on the inhibition on the oedema induced by the TPA application.
Benzoyl peroxide (BPO) was tested 2 times as a reference peroxide.

P. acnes CIP53.117 = assay: Minimum inhibitory concentration (MIC) on Propionibacterium acnes, dilution in liquid medium; type: cell-based; settings: strain CIP53.117, anaerobic, 36° C., minimum 72 h, range 2.5 mg/L to 1280 mg/L
Text: (§1) the aim is to evaluate the anti-bacterial activity of the peroxides by measuring the minimum inhibitory concentration (MIC). The MIC is defined as the lowest concentration of product capable of inhibiting all visible growth.
(§2) The sensitivity of the products is investigated on two strains from the Pasteur Institute collection (CIP) of Propionibacterium acnes (P. acnes): • P. acnes CIP53.117, equivalent to ATCC6919, origin: facial acne lesion (1920), source CRBIP, Pasteur Institute, Paris • P. acnes CIPA179, origin: sebaceous gland (1946), source CRBIP, Pasteur Institute, Paris Tests on the Products:
(§3) The products are dissolved at 1280 mg/L in a mixture of absolute ethanol/sterile Tween 80/sterile Wilkins Chalgren broth ([…]). The dilution ranges used are an adaptation of the method described by the CLSI for methods of dilution in liquid medium. The range consists of 10 concentrations from 2.5 mg/L to 1280 mg/L at intervals of ratio 2.
(§4) The suspension of P. acnes is prepared in Wilkins Chalgren broth and calibrated at an optical density of about 0.4 at wavelength of 525 nm. It is then diluted to 1/10 in Wilkins Chalgren broth and then put in the test cupules to obtain a final suspension of about 10^5-10^6 CFU/mL in each test cupule.
(§5) The solutions of the test products are distributed on a 96-well microplate and incubated at 36° C.±2° C. under anaerobic atmosphere for a minimum of 72 h. The first cupule for which there is no growth visible to the naked eye is regarded as the MIC.

P. acnes CIPA179 = assay: as above; type: cell-based; settings: strain CIPA179, anaerobic, 36° C., minimum 72 h, range 2.5 mg/L to 1280 mg/L
Text: as §1, §2, §3, §4, §5

[1] = TPA-induced ear oedema mouse model

Compound | Inhibition vs TPA (%) (TPA-induced ear oedema; compound 5% in TPA 0.01%) | Ear oedema Mean (TPA-induced ear oedema; compound 5% in TPA 0.01%) | ranking of Ex n°1 against Ex n°2 (TPA-induced ear oedema; both at 5%, TPA-induced ear oedema mouse model) | Inhibition vs TPA (%) (TPA-induced ear oedema; compound 1% in TPA 0.01%) | Ear oedema Mean (TPA-induced ear oedema; compound 1% in TPA 0.01%) | Inhibition vs TPA (%) (TPA-induced ear oedema; compound 2.5% in TPA 0.01%) | Ear oedema Mean (TPA-induced ear oedema; compound 2.5% in TPA 0.01%) | ranking compared to BPO at 5% (TPA-induced ear oedema; [1]) | anti-inflammatory effect (conclusion in words) (TPA-induced ear oedema; [1]) | MIC (minimum inhibitory concentration) (P. acnes CIP53.117) | MIC (minimum inhibitory concentration) (P. acnes CIPA179) | MIC (P. acnes CIP53.117; Cutibacterium acnes) | MIC (P. acnes CIPA179; Cutibacterium acnes)
O=C(OOC(=O)c1ccccc1)c1ccccc1 [BPO, Benzoyl peroxide, reference compound] | 21.4% and 27.8% | 17.60 and 20.80 |  |  |  |  |  |  |  |  |  |  | 
CC(=O)OCOc1ccccc1C(=O)OOC(=O)c1ccccc1OCOC(C)=O [Example 1, bis(2-acetoxymethoxy)-benzoyl peroxide] | 81.9% | 4.60 | slightly better than Ex n°2 at 5% | 45.7% | 13.80 | 74.8% | 6.40 | superior compared to BPO 5% | strong dose-dependent anti-inflammatory effect | 320 µg/mL (≈ 765 µM) | 320 µg/mL (≈ 765 µM) |  | 
CC(=O)OCOc1ccccc1C(=O)OOC(=O)c1ccccc1 [Example 2, (2-acetoxymethoxy-benzoyl)benzoyl peroxide] | 71.7% | 7.20 |  | 19.7% | 20.40 | 42.5% | 14.60 | superior compared to BPO 5% | moderate anti-inflammatory effect |  |  | 160 µg/mL (≈ 484 µM) | 80 µg/mL (≈ 242 µM)

— patent US8729312B2, “Derivatives of novel peroxides, method of preparation thereof and use thereof in human medicine as well as in cosmetics for the treatment or prevention of acne” (Galderma Research & Development, priority 2009, dated 2014)
